Experimental data: paper PMC11636681, “Pharmacokinetics and pharmacodynamics of antibacterial peptide NZX in Staphylococcus aureus mastitis mouse model” (Applied Microbiology and Biotechnology, 2024)
Positions of bridges follow the written chain, without caps; N, C: chain ends. Residues, ends and D or L forms follow the SMILES beside them.

Key:
S. aureus ATCC 25923 [1] = assay: Cell membrane permeability, PI staining by flow cytometry; format: cell-based, Staphylococcus aureus
Description: (§1) Flow cytometry was used for the analysis of the effects of NZX on the penetration rate of the S. aureus cell membrane (Yang et al. [2019]). The S. aureus cells in mid-log phase were adjusted to 1 × 10^8 CFU/mL and the bacteria suspensions were treated with 1 × , 2 × and 4 × MIC of NZX for 2 h at 37 °C. In addition, the cell suspensions were incubated with 2 × MIC of NZX for 0 h, 0.5 h, 1 h and 2 h, respectively. After incubation, the cells were centrifuged at 4000 rpm at 4 °C for 5 min, washed twice with sterile PBS, and pellets were resuspended in 1 mL of PBS. Next, cells were stained with 50 µg/mL propidium iodide (PI) for 30 min in the dark at room temperature, and the proportion of cells with PI positive cells to the total cells were analyzed by flow-cytometry (BD, USA). Lincomycin and ceftiofur were used as positive controls and PBS as negative control. Three replicates for each treatment were conducted.

S. aureus E48 [2] = assay: as above; format: cell-based, Staphylococcus aureus
Description: as §1

S. aureus ATCC 25923 [3] = assay: Mutant prevention concentration (MPC) on MHA plates; format: cell-based, Staphylococcus aureus; settings: 1 × 10^10 CFU/mL, 37 °C, 72 h, each concentration three times
Description: (§2) Minimal Inhibitory Concentration (MIC), Minimal Bactericidal Concentration (MBC) and Mutant Prevention Concentration (MPC).
(§3) MPCs of NZX against the test S. aureus strain were determined as described by Plowgian et al., with some modification (Plowgian et al. [2019]). In brief, S. aureus cells were cultured to mid-log phase in Mueller–Hinton broth (MHB) medium. Then the suspensions were centrifuged (4000 rpm for 5 min) and the pellets were collected and diluted to a final concentration of 1 × 10^10 CFU/mL with MHB. […] All plates were incubated at 37 ^∘C for 72 h and the concentration corresponding to the plate with no bacterial growth was regarded as the provisional mutant prevention concentration (MPCpr). […] Lincomycin and ceftiofur were set as antibiotic controls, respectively. Each concentration was conducted three times.

S. aureus E48 [4] = assay: as above; format: cell-based, Staphylococcus aureus; settings: 1 × 10^10 CFU/mL, 37 °C, 72 h, each concentration three times
Description: as §2, §3

S. aureus ATCC 25923 [5] = assay: Post antibiotic effect (PAE); format: cell-based, Staphylococcus aureus; settings: 2 h exposure at 1 × to 8 × MIC, 1 × 10^8 CFU/mL, triplicate
Description: (§4) PAE was performed based on the method of Zhang et al. (Zhang et al. [2014]). S. aureus E48, S. aureus ATCC 25923 and S. aureus ATCC 43300 were cultured at 37 °C in MHB medium to the log-phase. Then, the diluted cells (1 × 10^8 CFU/mL) were exposed to NZX with final concentration of 1 × , 2 × , 4 × and 8 × MIC in the 48-well plates for 2 h at 37 °C. After incubation, NZX were removed by diluting 1:1000 with MHB medium. Viable counts were determined immediately after drug reconstruction and at 1–2 h interval for at least 10 h. PAE determination was calculated as PAE (h) = T-C, where T is the time (h) that required to increase by tenfold for the drug-treated viable count from the moment of drug reconstruction and C is the time (h) required to increase by tenfold for cell density without treatment. The experiments were conducted in triplication.

S. aureus E48 [6] = assay: Post antibiotic effect (PAE); format: cell-based, Staphylococcus aureus; settings: 2 h exposure at 1 × to 8 × MIC, 1 × 10^8 CFU/mL, triplicate
Description: as §4

S. aureus ATCC 25923 [7] = assay: Mouse mastitis model, bacterial counts in mammary tissues; format: in vivo; settings: 24 h after treatment; for bacteria reduction in mammary tissues: vs PC group
Text: (§5) The 7 to 8-weeks old ICR mice (80 females, 40 males) were housed in independent ventilated cages, and feed with autoclaved laboratory food and water. Female mice in heat were put into the cage of males (females:males, 2:1) overnight and checked for vaginal plugs at the following morning to induce pregnancy. ICR-lactating mice were used at 6 to 8 days after the birth of the offspring. The mouse mastitis model was established as previously described (Li et al. [2017]). Mice were randomly divided into nine groups: NC group (uninfected group), PC group (infected but without treatment), NZX groups (25, 50, 100, 200 and 400 μg/gland, respectively), lincomycin group (100 μg/gland), and ceftiofur group (100 μg/gland). Each experimental group has six independent experiments with three mice. Specially, the pups were removed 1 h before the intramammary injection of both L4 (on the left) and R4 (on the right) abdominal mammal glands. A 100 μL of S. aureus strains (1 × 10^6 CFU/mL) was administrated to mice in PC, NZX, lincomycin and ceftiofur groups, and the same volume of sterile physiological saline was administrated to mice in NC group. Glands of 3 h post-infection were injected with sterile physiological saline, NZX, lincomycin, or ceftiofur. The mice were euthanized after the treatment for 24 h, and their mammary glands were dissected, weighed, and homogenized. The animal experiments were performed according to the Animal Care and Use Committee of the Feed Research Institute, Chinese Academy of Agricultural Sciences (Permit Number: AEC-CAAS-20090609) in accordance with the Guidelines for Animal Experimentation.
(§6) After mouse sacrifice, one part of mammary tissue was taken for bacterial count, and the other part was used for the histopathological analysis. Specifically, tissues were aseptically collected immediately from the dead mice, weighted, homogenized with sterile physiological saline (1:1, W:V). Next, the homogenates were serially diluted (ten-fold dilutions) in physiological saline, plated on MHA plate, and then cultured overnight at 37 °C. The bacterial number on each plate was counted and the results were expressed as Log10 CFU per gram of mammary tissues. In addition, mammary tissues were fixed in 4% paraformaldehyde, then embedded in paraffin, cut into 5 μm sections, and later stained by hematoxylin–eosin (H&E). The stained sections were observed under a light microscope (× 200) for pathological morphology and scoring of mammary tissues (Schmidt et al. [1992]).

S. aureus E48 [8] = assay: as above; format: in vivo; settings: 3 h post-infection, 24 h after treatment, vs PC group
Text: as §5, §6

[9] = 2 × MIC, range over 0, 0.5, 1 and 2 h
[10] = 2 h, range over 1 × MIC, 2 × MIC and 4 × MIC

Row | SMILES | percentage of PI-positive cells (S. aureus ATCC 25923 [1]; [9]) | percentage of PI-positive cells (S. aureus ATCC 25923 [1]; [10]) | percentage of PI-positive cells (S. aureus E48 [2]; [9]) | percentage of PI-positive cells (S. aureus E48 [2]; [10]) | MPC (S. aureus ATCC 25923 [3]) [µM] | MPC (S. aureus E48 [4]) [µM] | mean PAE range (S. aureus ATCC 25923 [5]) [h] | mean PAE range (S. aureus E48 [6]) [h] | bacteria reduction in mammary tissues (S. aureus ATCC 25923 [7]; 100 μg/gland intramammary) [Log10 CFU/g] | bacterial loads in mammary tissues (S. aureus ATCC 25923 [7]; 400 μg/gland intramammary) | bacteria reduction in mammary tissues (S. aureus ATCC 25923 [7]; range over 25–400 μg/gland intramammary) | bacteria reduction in mammary tissues (S. aureus E48 [8]; 100 μg/gland intramammary) [Log10 CFU/g] | bacteria reduction in mammary tissues (S. aureus E48 [8]; range over 25 ~ 400 μg/gland intramammary)
1 | CC[C@H](C)[C@@H]1NC(=O)[C@H](CO)NC(=O)[C@H](CCCCN)NC(=O)[C@@H]2CSSC[C@@H](C(=O)N[C@@H](Cc3ccc(O)cc3)C(=O)O)NC(=O)[C@H](CCCCN)NC(=O)[C@@H]3CSSC[C@H](NC(=O)[C@H](CCC(N)=O)NC(=O)[C@H]([C@@H](C)CC)NC(=O)[C@H](CC(=O)O)NC(=O)[C@H](CC(=O)O)NC(=O)[C@H](CCC(=O)O)NC(=O)[C@H](CO)NC(=O)[C@H](Cc4c[nH]c5ccccc45)NC(=O)[C@@H]4CCCN4C(=O)CNC(=O)[C@H](CC(N)=O)NC(=O)[C@@H](NC(=O)CNC(=O)[C@H](Cc4ccccc4)NC(=O)CN)CSSC[C@H](NC(=O)[C@H](Cc4ccc(O)cc4)NC(=O)CNC(=O)CNC(=O)[C@H](CCCCN)NC(=O)[C@H](Cc4ccc(O)cc4)NC(=O)CNC(=O)[C@H](CCCCN)NC1=O)C(=O)N[C@@H](C)C(=O)N[C@@H](CCCNC(=N)N)C(=O)NCC(=O)NCC(=O)N[C@@H](Cc1ccccc1)C(=O)N[C@@H](C(C)C)C(=O)N3)C(=O)N[C@@H](Cc1c[nH]cn1)C(=O)N[C@@H](CC(N)=O)C(=O)N[C@@H](Cc1c[nH]cn1)C(=O)N2 [NZX] (H-GFGCNGPWSEDDIQCHNHCKSIKGYKGGYCARGGFVCKCY-OH; disulfide 4-30, 15-37, 19-39; N-terminus and C-terminus assumed) | 1.93 to 54.06% | 12.9–48.0% | 2.61 to 72.93% | 25.6–70.3% | 3.68 | 1.47 | 1.67 to 3.34 | 1.14 to 3.60 | 4.73 | eliminated | 3.35–11.09 Log10 CFU/g | 8.34 | 0.77–8.34 Log10 CFU/g
2 | CCC[C@@H]1C[C@@H](C(=O)N[C@@H]([C@H]2O[C@H](SC)[C@H](O)[C@@H](O)[C@H]2O)[C@@H](C)O)N(C)C1 [Lincomycin] | – | 0.45 to 0.63% | 0.13–2.61% | 0.08 to 0.09% | > 1111.04 | > 1111.04 | 0.94 to 1.52 | 2.02 to 3.27 | 5.23 | – | – | 7.37 | –
3 | CO/N=C(\C(=O)N[C@@H]1C(=O)N2C(C(=O)O)=C(CSC(=O)c3ccco3)CS[C@H]12)c1csc(N)n1 [Ceftiofur] | 1.35–4.31% | 1.55–3.42% | 2.61–23.53% | 8.56–21.1% | 234.24 | 5.49 | 1.40 to 2.29 | 1.30 to 2.10 | 6.99 | – | – | 5.70 | –
